How the values were obtained:
[1] = target: T1, GST tagged LXRbeta LBD (ligand binding domain) (Homo sapiens, UniProt P55055); assay: LanthaScreen TR-FRET Liver X Receptor Coactivator Assay, LXR beta-LBD; assay type: biochemical; conditions: relative to reference T0901317; for EC50: Inflection Point (potency), co-activator recruitment, read-out: LXR beta IP; for Emax: activity at max dose (efficacy), read-out: LXR beta act @ max dose (%)
T1 construct: purchased Invitrogen pv4658.pps
T1 sequence (P55055 222-460 limits assumed): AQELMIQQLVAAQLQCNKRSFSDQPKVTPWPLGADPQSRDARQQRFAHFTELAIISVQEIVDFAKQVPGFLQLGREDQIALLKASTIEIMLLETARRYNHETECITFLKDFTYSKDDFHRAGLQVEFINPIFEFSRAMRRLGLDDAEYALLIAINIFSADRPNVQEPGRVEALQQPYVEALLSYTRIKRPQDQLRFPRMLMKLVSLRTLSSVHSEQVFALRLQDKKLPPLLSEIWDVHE
Method: (§1) Potency (Inflection Point, IP) and efficacy (Emax) are evaluated via compound-induced co-activator recruitment to glutathione-S-transferase (GST) tagged LXRbeta and LXRalpha LBD (ligand binding domain) proteins in relation to reference dual agonist compound T0901317 (N-(2,2,2-Trifluoroethyl)-N-[4-[2,2,2-trifluoro-1-hydroxy-1-(trifluoromethyl)ethyl] phenyl]benzenesulfonamide) using the LanthaScreen™ TR-FRET Liver X Receptor Coactivator Assays according to manufacturer's instructions (Invitrogen catalog number pv4658.pps and pv4655). While running the LanthaScreen™ TR-FRET Liver X Receptor Coactivator Assay, LXR alpha-LBD or LXR beta-LBD was added to ligand test compounds followed by addition of a mixture of a fluorescein-labelled coactivator peptide and terbium-conjugated anti-GST antibody. After an incubation period at room temperature, TR-FRET (time-resolved fluorescence resonance energy transfer) was measured using a filter-based instrument capable of TR-FRET, e.g. PerkinElmer Envision.

[2] = target: T2, GST tagged LXRalpha LBD (ligand binding domain) (Homo sapiens, UniProt Q13133); assay: LanthaScreen TR-FRET Liver X Receptor Coactivator Assay, LXR alpha-LBD; assay type: biochemical; conditions: relative to reference T0901317; for EC50: Inflection Point (potency), co-activator recruitment, read-out: LXR alpha IP; for Emax: activity at max dose (efficacy), read-out: LXR alpha act @ max dose (%)
T2 construct: purchased Invitrogen pv4655
T2 sequence (Q13133 209-447 limits assumed): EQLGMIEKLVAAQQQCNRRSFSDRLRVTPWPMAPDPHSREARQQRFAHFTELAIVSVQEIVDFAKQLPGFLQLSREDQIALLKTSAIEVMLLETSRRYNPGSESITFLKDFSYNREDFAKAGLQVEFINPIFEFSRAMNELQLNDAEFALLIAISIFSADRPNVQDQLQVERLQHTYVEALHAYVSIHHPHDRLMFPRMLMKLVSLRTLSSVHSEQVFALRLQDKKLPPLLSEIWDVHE
Method: as §1

Row | Compound | EC50 [1] [µM] | Emax [1] [%] | EC50 [2] [µM] | Emax [2] [%]
1 | CN(C)C(=O)c1ccc(N2CCC(C3CCN(C(=O)C(C)(C)c4ccccc4)CC3)CC2)cc1Cl [Example A-12, 2-chloro-N,N-dimethyl-4-[1′-(2-methyl-2-phenylpropanoyl)-4,4′-bipiperidin-1-yl]benzamide] | 0.014 | 114 | 2.46 | 47
2 | CN(C)C(=O)c1ccc(N2CCC(C3CCN(C(=O)C4(c5ccccc5)CCC4)CC3)CC2)cc1Cl [Example A-14, 2-chloro-N,N-dimethyl-4-{1′-[(1-phenylcyclobutyl)carbonyl]-4,4′-bipiperidin-1-yl}benzamide] | 0.036 | 114 | 1.53 | 38
3 | CN(C)C(=O)c1ccc(N2CCC(C3CCN(C(=O)C4(c5cccc(F)c5)CCC4)CC3)CC2)cc1Cl [Example A-17, 2-chloro-4-(1′-{[1-(3-fluorophenyl)cyclobutyl]carbonyl}-4,4′-bipiperidin-1-yl)-N,N-dimethylbenzamide] | 0.204 | 100 | 2.26 | 14
4 | CN(C)C(=O)c1ccc(N2CCC(C3CCN(C(=O)C4(c5ccc(F)cc5)CCC4)CC3)CC2)cc1Cl [Example A-18, 2-chloro-4-(1′-{[1-(4-fluorophenyl)cyclobutyl]carbonyl}-4,4′-bipiperidin-1-yl)-N,N-dimethylbenzamide] | 0.207 | 81 | 4.2 | 15
5 | Cc1cccc(C2(C(=O)N3CCC(C4CCN(c5ccc(C(=O)N(C)C)c(Cl)c5)CC4)CC3)CCC2)c1 [Example A-19, 2-chloro-N,N-dimethyl-4-(1′-{[1-(3-methylphenyl)cyclobutyl]carbonyl}-4,4′-bipiperidin-1-yl)benzamide] | 0.124 | 94 | 1.75 | 17
6 | CN(C)C(=O)c1ccc(N2CCC(C3CCN(C(=O)c4ccccc4C(F)(F)F)CC3)CC2)cc1Cl [Example A-21, 2-chloro-N,N-dimethyl-4-(1′-{[2-(trifluoromethyl)phenyl]carbonyl}-4,4′-bipiperidin-1-yl)benzamide] | 0.243 | 95 | 3 | 37

The remaining lines, values ahead:

Row | EC50 [1] [µM] | Emax [1] [%] | EC50 [2] [µM] | Emax [2] [%] | Compound
7 | 0.03 | 109 | 0.756 | 59 | CN(C)C(=O)c1ccc(N2CCC(C3CCN(C(=O)C(O)(C4CCC4)C(F)(F)F)CC3)CC2)cc1Cl (centres unmarked) [Example A-10, 2-chloro-4-[1′-(2-cyclobutyl-3,3,3-trifluoro-2-hydroxypropanoyl)-4,4′-bipiperidin-1-yl]-N,N-dimethylbenzamide]
8 | 0.512 | 125 | 2.1 | 62 | C#CC(C)(C)C(=O)N1CCC(C2CCN(c3ccc(C(=O)N(C)C)c(Cl)c3)CC2)CC1 [Example A-11, 2-chloro-4-[1′-(2,2-dimethylbut-3-ynoyl)-4,4′-bipiperidin-1-yl]-N,N-dimethylbenzamide]
9 | 0.052 | 106 | 1.51 | 19 | CN(C)C(=O)c1ccc(N2CCC(C3CCN(C(=O)[C@](O)(c4ccccc4)C(F)(F)F)CC3)CC2)cc1Cl [Example A-13, 2-chloro-N,N-dimethyl-4-{1′-[(2R)-3,3,3-trifluoro-2-hydroxy-2-phenylpropanoyl]-4,4′-bipiperidin-1-yl}benzamide]
10 | 0.314 | 93 | 3.13 | 31 | CN(C)C(=O)c1ccc(N2CCC(C3CCN(C(=O)C45CC(C4)C5)CC3)CC2)cc1Cl [Example A-15, 4-[1′-(bicyclo[1.1.1]pent-1-ylcarbonyl)-4,4′-bipiperidin-1-yl]-2-chloro-N,N-dimethylbenzamide]
11 | 0.014 | 109 | 0.861 | 33 | CN(C)C(=O)c1ccc(N2CCC(C3CCN(C(=O)C(C)(c4ccccc4)C(F)(F)F)CC3)CC2)cc1Cl (centres unmarked) [Example A-16, 2-chloro-N,N-dimethyl-4-[1′-(3,3,3-trifluoro-2-methyl-2-phenylpropanoyl)-4,4′-bipiperidin-1-yl]benzamide]

From US20180305332A1, “Bispiperidinyl Derivatives as Liver X Receptor Beta Agonists, Compositions, and Their Use” (Merck Sharp & Dohme Corp., priority 2015, published 2018)
